Test results as given in US20070010477A1, “Acyl homoserine lactones for inhibition of cell growth” (priority 2005, published 2007).

Columns and labels:
TS [1] = assay: Western blot of TS protein down-regulation in H630 cells; type: cell-based, human; conditions: for down-regulation of TS protein (activity in words): 18-20 hours after addition
Procedure: Conventional techniques were used to propagate and maintain the H630 and H630-1 cell lines (see, for example Dolnick, et al. (2003) Cancer Biology & Therapy, 2: 364-369; Stephanie, et al. (2001) In: Proceedings AACR, New Orleans, La., pp. 493). For the investigation of effects on TS expression, cells were extracted at 18-20 hours after the addition of AHLs. For Western blot analysis, proteins were extracted and Western blotting was performed by standard methods using blots blocked with 5% nonfat dried milk dissolved in 10 mM Tris-HCl, pH 8.0, 150 mM sodium chloride, 0.05% Tween-20. The blots were probed using either monoclonal (4D5E11) or polyclonal antibodies to TS and then probed for α-tubulin (monoclonal antibody B-5-1-2, Sigma Biochemicals) to confirm equivalent protein loading. The same blots were successively probed with anti-rTSβ or anti-TS, and finally anti-tubulin. After probing for each protein, the blots were stripped by incubation in 8 M guanidine HCl. Detection of rTS protein was performed with mouse monoclonal antibody D3, prepared against recombinant rTSβ protein. All Western blots were detected using the horseradish peroxidase-based West Pico Dura chemiluminescent substrate (Pierce) and horseradish peroxidase-coupled F(ab′)2 fragments (Jackson ImmunoResearch Laboratories, West Grove, Pa.) as secondary antibodies
These AHLs were synthesized as described previously (Chhabra, et al., 1993, J. Antibiotics 46, 441-454). For studies with the H630-1 cell line, AHLs were either dissolved in RPMI 1640 (hydroxy-butanoyl-, butanoyl-, 3-(oxo)-hexanoyl-homoserine lactones) or in dimethyl sulfoxide (DMSO) (hexanoyl-homoserine lactones) and added to mid-log H630 cells in RPMI1640 containing 10 μM methionine and 1× ITS+ culture supplement (BD Bioscience) in place of serum at the indicated concentrations. […] After 18 hr, the medium was removed, the cells washed twice and protein extracted. The extracted proteins were separated on denaturing polyacrylamide gels and probed for rTS, TS and tubulin using specific antibodies.
This embodiment describes the down regulation of TS by AHLs as a ftmction of time. H630 cells were incubated with medium containing 3-oxo-hexanoyl-L-HSL (3 mM) as described for Example 5. The extraction and analysis was also carried out as described in Example 5 at the indicated times after drug addition.
(§1) A variety of AHLs with acyl-chains containing 4- to 12-carbons (C4-C12) and 3-hydroxy or 3-keto substituents were prepared as described in Example 1 and analyzed for their effect on TS protein expression by Western blotting. Although several of the shorter chain AHLs (C4-C6) can cause loss of TS, the required concentrations are in the mM range. […] The latter observation indicates 3-oxo-C12-HSL has effects on gene expression aside from the down-regulation of TS. In this regard, FIG. 8C provides a photographic representation of the effect of 23 μmol/L 3-oxo-C12-HSL on TS mRNA levels in H630 cells (20 hours of exposure) as evaluated by RT-PCR. […] Microarray analysis of H630 RNA was done using the Affymetrix (Santa Clara, Calif.) HGU133A GeneChip. Microarray data was analyzed using Genetraffic software (Stratagene, La Jolla, Calif.) with the Robust Multichip Analysis method (Lauren et al., (2003) IEEE Trans Nanobioscience; 2:163-70) for measuring probe intensity and scaling. Results for treated and untreated cells were analyzed for significant changes within each experiment (P<0.05) as well as for changes in pooled data from three separate experiments. RNA for RT-PCR or microarray analysis was prepared using an RNAeasy kit from Qiagen (Valencia, Calif.).

tubulin = assay: Western blot of tubulin in H630 cells; type: cell-based, human; conditions: FIG. 8B
Procedure: Conventional techniques were used to propagate and maintain the H630 and H630-1 cell lines (see, for example Dolnick, et al. (2003) Cancer Biology & Therapy, 2: 364-369; Stephanie, et al. (2001) In: Proceedings AACR, New Orleans, La., pp. 493). For the investigation of effects on TS expression, cells were extracted at 18-20 hours after the addition of AHLs. For Western blot analysis, proteins were extracted and Western blotting was performed by standard methods using blots blocked with 5% nonfat dried milk dissolved in 10 mM Tris-HCl, pH 8.0, 150 mM sodium chloride, 0.05% Tween-20. […] All Western blots were detected using the horseradish peroxidase-based West Pico Dura chemiluminescent substrate (Pierce) and horseradish peroxidase-coupled F(ab′)2 fragments (Jackson ImmunoResearch Laboratories, West Grove, Pa.) as secondary antibodies
A variety of AHLs with acyl-chains containing 4- to 12-carbons (C4-C12) and 3-hydroxy or 3-keto substituents were prepared as described in Example 1 and analyzed for their effect on TS protein expression by Western blotting. […] In this regard, FIG. 8C provides a photographic representation of the effect of 23 μmol/L 3-oxo-C12-HSL on TS mRNA levels in H630 cells (20 hours of exposure) as evaluated by RT-PCR. […]

TS mRNA = assay: RT-PCR of TS mRNA levels in H630 cells; type: cell-based, human; conditions: 23 μmol/L, 20 hours of exposure
Procedure: as §1, with “Calif.). […]” for “Calif.).”

TS [2] = molecular target: T1, TS (Homo sapiens, UniProt P04818); assay: TS modulation assay (luciferase mRNA containing TS binding elements) in H630 cells; type: cell-based; conditions: H630 cells treated with IC50 concentration
T1 construct: effects of AHLs on TS and tubulin in H630 cells; endogenous in cells; host or cells: H630 human colon cancer cells

H630 cells [3] = assay: Growth inhibition, cells counted 3 days after addition; type: cell-based, human
H630-1 cells [4] = assay: as above; type: cell-based, human
MCF-7 cells = assay: Growth inhibition; type: cell-based, human; conditions: MCF-7 breast cancer cell line
NCI-H460 = assay: Growth inhibition; type: cell-based, human; conditions: NCI-H460 lung cancer cell line
H630-1 = assay: Sulforhodamine-B growth inhibition assay, 5 days; type: cell-based, human; conditions: H630-1 cells, SRB staining
Procedure: (§2) For growth inhibition assays described in this Example, H630, H630-1 and PC-3 (prostate cancer cells) cells were growth in the presence of HSL analog for 5 days. At the end of day 5, cells were fixed and stained with Sulforhodamine-B (SRB), a protein-staining dye. Excess SRB was removed leaving only dye bound to proteins from cells. Protein-bound SRB was then dissolved in base and quantified by spectrophotometric absorbance. In this assay, the amount of SRB bound to protein correlates with the number of cells present, allowing for the analysis of growth of treated versus untreated samples. The HSL analogs are administered at 10 concentrations, spanning a 5 log range.
(§3) The data points in the graphs of FIGS. 13A-13C represent % control growth at a given HSL analog concentration. IC50 values represent the concentration of HSL analog at which growth of the treated cells is inhibited by 50%. The structure of the tested compounds, designated by number, are as set forth in FIG. 13 from which it can be sent that the phenyl-HSL analogs tested range from C5 (compound 12) to C14 (compound 25). […] This effect decreases as the chain length reaches C14, as indicated by an increase in the IC50 values. […] Specifically, the C10 phenyl analog (compound 20) is equally as active as the 3-oxo-C12 HSL used as a positive control, despite having two fewer carbons in the alkyl chain.

H630 = assay: Sulforhodamine-B growth inhibition assay, 5 days; type: cell-based, human; conditions: H630 cells, SRB staining
Procedure: as §2, §3

[5] = system: PC-3 (prostate cancer cells); assay: Sulforhodamine-B growth inhibition assay, 5 days; type: cell-based, human; conditions: PC-3 cells, SRB staining
Procedure: as §2, §3

H630 cells [6] = assay: Colony formation assay; conditions: for enhancement of activity by 3-oxo-C12-HSL: colony formation, 23 μM 3-oxo-C12-HSL
H630-1 cells [7] = assay: Colony formation assay; type: cell-based, human; conditions: for enhancement of activity by 3-oxo-C12-HSL: colony formation, 8 μM 3-oxo-C12-HSL

T1 sequence (P04818 whole entry): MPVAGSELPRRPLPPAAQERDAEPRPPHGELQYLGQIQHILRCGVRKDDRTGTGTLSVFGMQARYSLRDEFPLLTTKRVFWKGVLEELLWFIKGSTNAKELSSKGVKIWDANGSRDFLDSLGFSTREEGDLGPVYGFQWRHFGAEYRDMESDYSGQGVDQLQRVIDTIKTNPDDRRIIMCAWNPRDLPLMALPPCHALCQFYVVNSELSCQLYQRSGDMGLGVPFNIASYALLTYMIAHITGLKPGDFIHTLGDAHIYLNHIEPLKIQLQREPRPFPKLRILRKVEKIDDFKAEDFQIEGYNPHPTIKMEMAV

SMILES: CCCCCC(=O)NC1CCOC1=O (racemic) [C6-HSL racemic mix, hexanoyl-homoserine lactone]
- down-regulation of TS protein (activity in words) (TS [1]; Western blot): less active

SMILES: CCCCCC(=O)N[C@H]1CCOC1=O (single isomer, unassigned) [(L)-isomer of C6-HSL, N-hexanoyl (L-)-homoserine lactone]
- down-regulation of TS protein (activity in words) (TS [1]; Western blot): active

SMILES: CCCC(=O)CC(=O)OCC [3-(oxo)-ethylhexanoate, reference compound]
- down-regulation of TS protein (activity in words) (TS [1]; Western blot): inactive

SMILES: CCCCCCCCCC(=O)CC(=O)N[C@H]1CCOC1=O [3-oxo-C12-HSL, 3-oxo-C12 homoserine lactone]
- concentration needed to reduce the amount of TS (TS [1]; FIG. 8B): 1 to 10 µM
- lowest concentration causing down-regulation of TS (TS [1]; Western blot, FIG. 8B): 10 µM
- effect on tubulin with increasing concentrations (tubulin): appears to decrease
- TS mRNA levels (TS mRNA): unaffected
- TS modulatory activity (luminescence) (TS [2]): no detectable TS modulatory activity
- IC50 (H630 cells [3]; 3 days): 23 µM
- growth inhibition, relative activity of stereoisomer (H630 cells [3]; FIG. 9B): more active than the racemic mixture
- IC50 (H630-1 cells [4]): 8 µM
- IC50 (MCF-7 cells): 16 µM
- IC50 (NCI-H460): 35 µM
- IC50 (H630-1): 12 µM
- IC50 (H630): 35 µM
- IC50 [5]: 10 µM
- IC50 (H630 cells [6]; read-out: IC50 for inhibition of cell growth in a clonogenic assay, H630 cells, FIG. 9B solid circles): ~10 µM

SMILES: CCCCCC(=O)NC1CCOC1=O (stereo not shown) [C6-(D)—HSL]
- down-regulation of TS protein (activity in words) (TS [1]; Western blot): inactive

SMILES: CCCC(=O)CC(=O)N[C@H]1CCOC1=O [Compound 3-oxo-C6-HSL, 3-oxo-N-hexanoyl-(L-)homoserine lactone]
- time for which the TS reduction is maintained (TS [1]; 3 mM): approximately 24 hours
- reduction of TS levels (TS [1]; 3 mM, after 16 hours): approximately 50%
- TS modulatory activity (luminescence) (TS [2]): potent modulator of TS

SMILES: CCCCCCCCCCCC(=O)N[C@H]1CCOC1=O [Compound C12-HSL]
- down-regulation of TS protein (TS [1]; at concentrations as high as 100 μM): inactive
- IC50 (H630 cells [3]; FIG. 9B, read-out: IC50 growth inhibition): 1000 µM

SMILES: O=c1[nH]cc(F)c(=O)[nH]1 [FU, 5-fluorouracil]
- enhancement of activity by 3-oxo-C12-HSL (H630-1 cells [7]): No enhancement
- IC50 (H630 cells [6]; Homo sapiens, NCI-H630, 336 h, read-out: apparent IC50 of FU, FU alone): 1 µM

SMILES: O=c1[nH]c(=O)n([C@H]2C[C@H](O)[C@@H](CO)O2)cc1F [FUdR, fluorodeoxyuridine]
- enhancement of activity by 3-oxo-C12-HSL (H630 cells [6]; H630 cells): enhancement

SMILES: O=c1[nH]c(=O)n([C@@H]2O[C@H](CO)[C@@H](O)[C@H]2O)cc1F [FUrd, 5-fluorouridine]
- enhancement of activity by 3-oxo-C12-HSL (H630 cells [6]; H630 cells): no enhancement

SMILES: COc1cccc2c1C(=O)c1c(O)c3c(c(O)c1C2=O)C[C@@](O)(C(=O)CO)C[C@@H]3O[C@H]1C[C@H](N)[C@H](O)[C@H](C)O1 [adriamycin]
- enhancement of activity by 3-oxo-C12-HSL (H630 cells [6]; H630 cells): not

SMILES: CN(Cc1cnc2nc(N)nc(N)c2n1)c1ccc(C(=O)N[C@@H](CCC(=O)O)C(=O)O)cc1 [methotrexate]
- enhancement of activity by 3-oxo-C12-HSL (H630 cells [6]; H630 cells): not

SMILES: CC(=O)O[C@H]1C(=O)[C@@]2(C)[C@H]([C@H](OC(=O)c3ccccc3)[C@]3(O)C[C@H](OC(=O)[C@H](O)[C@@H](NC(=O)c4ccccc4)c4ccccc4)C(C)=C1C3(C)C)[C@]1(OC(C)=O)CO[C@@H]1C[C@@H]2O [taxol]
- IC50 (H630-1 cells [7]; Homo sapiens, FIG. 11E): 0.02 µM
- enhancement of activity by 3-oxo-C12-HSL (H630-1 cells [7]): some enhancement
- enhancement of activity by 3-oxo-C12-HSL (H630 cells [6]; H630 cells): some enhancement
- IC50 (H630 cells [6]; Homo sapiens, NCI-H630, read-out: IC50 colony formation): 0.006 µM

SMILES: Cc1nc2ccc(CN(C)c3ccc(C(=O)N[C@@H](CCC(=O)O)C(=O)O)s3)cc2c(=O)[nH]1 [tomudex]
- enhancement of activity by 3-oxo-C12-HSL (H630 cells [6]; H630 cells): enhancement
